Where “and” joins values, the source holds several entries; their conditions need not be identical. Identical values can stand only once. Like-named read-outs stand apart in the source and are kept apart here. Marks after values point to notes of the source that are not given here. Numbered stars: 1 amine (or outer) side, 2 acyl side, 3 side chain; on linkers, the order of the positions; unused ones are H or OH. Square brackets hold non-standard residues; d marks the D form. Side chains are listed from the residue outwards. Peptide text beside a SMILES is read from it. * marks the point of attachment. ξ: configuration not given here. C20 diacid = O=C(O)CCCCCCCCCCCCCCCCCCC(=O)*; αMePhe(2-F) = C[C@](N)(Cc1ccccc1F)C(=O)O; γGlu = O=C(O)[C@H](CCC(=O)[*:2])N[*:1]; αMeY = C[C@](N)(Cc1ccc(O)cc1)C(=O)O; 4Pal = N[C@@H](Cc1ccncc1)C(=O)O; αMeL = CC(C)C[C@](C)(N)C(=O)O; Orn = NCCC[C@H](N)C(=O)O; ξIva = CCC(C)(N)C(=O)O; AEEA = NCCOCCOCC(=O)O; Aib = CC(C)(N)C(=O)O
Tests used:
[1] = molecular target: T1, hGIPR (Homo sapiens, UniProt P48546); assay: Functional cAMP assay in HEK-293 cells expressing hGIPR; format: cell-based; settings: percent of maximal response to GIP(1-42)NH2
T1 construct: expressed in transfected cells; host or cells: HEK-293 clonal cell line
T1 sequence (P48546 22-466): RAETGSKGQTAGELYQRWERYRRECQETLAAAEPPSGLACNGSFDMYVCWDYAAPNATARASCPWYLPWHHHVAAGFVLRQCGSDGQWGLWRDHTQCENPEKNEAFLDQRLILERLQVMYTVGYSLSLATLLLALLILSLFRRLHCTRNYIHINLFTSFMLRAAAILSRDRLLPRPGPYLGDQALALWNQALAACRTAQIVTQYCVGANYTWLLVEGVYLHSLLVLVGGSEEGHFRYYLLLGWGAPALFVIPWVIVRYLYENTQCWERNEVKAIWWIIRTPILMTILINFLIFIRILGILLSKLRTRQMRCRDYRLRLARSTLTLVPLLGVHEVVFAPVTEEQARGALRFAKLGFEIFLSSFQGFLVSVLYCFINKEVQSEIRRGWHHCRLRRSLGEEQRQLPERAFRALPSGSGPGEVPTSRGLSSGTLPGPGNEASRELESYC
Method: (§1) Experiments also are performed under identical assay conditions with the addition of 1.0% fatty acid free, globulin free human serum albumin (Sigma Cat #A3782).
(§2) After a 30-min incubation at 37° C., the resulting increase in intracellular cAMP is quantitatively determined using a CisBio cAMP Dynamic 2 HTRF Assay Kit (62AM4PEJ). Briefly, cAMP levels within the cell are detected by adding the cAMP-d2 conjugate in cell lysis buffer (10 μL) followed by the antibody anti-cAMP-Eu^3+-Cryptate, also in cell lysis buffer (10 μL). The resulting competitive assay is incubated for at least 60 min at room temperature, and then is detected using a PerkinElmer Envision® instrument with excitation at 320 nm and emission at 665 nm and 620 nm. Envision units (emission at 665 nm/620 nm*10,000) are inversely proportional to the amount of cAMP present and are converted to nM cAMP per well using a cAMP standard curve. […] A relative EC50 value and percent top (Emax) are derived by non-linear regression analysis using the percent maximal response vs. the concentration of peptide added, fitted to a four-parameter logistic equation.

[2] = Pharmacokinetics in male diet-induced obese (DIO) mice; format: in vivo; settings: mouse, single 200 nmol/kg SQ dose, plasma; for half-life: read-out: t½ (converted)
Method: Methods: Male DIO mice are administered a single SQ dose of 200 nmol/kg (0.98 mg/kg) of Example compounds in 40 mM Tris-HCL pH8 buffer with 0.02% PS80 at a volume of 10 mL/kg. […] Plasma concentration of Example compounds are determined by a qualified Liquid Chromatography Mass Spectrometry (LC/MS) method at Q Squared Solutions BioSciences LLC (Ithaca, NY). The Example compounds and an internal standard are extracted from 100% mouse plasma using protein precipitation followed by solid phase extraction. The intact mass of the Example compounds, which includes peptide plus acyl chain, are detected by a Q-Exactive™ Orbitrap® mass spectrometer.

[3] = molecular target: T2, hGLP-1R (Homo sapiens, UniProt P43220); assay: Functional cAMP assay in HEK-293 cells expressing hGLP-1R; format: cell-based; settings: percent of maximal response to GLP-1(7-36)NH2
T2 construct: expressed in transfected cells; host or cells: HEK-293 clonal cell line
Method: as §1, §2

[4] = molecular target: T3, hGCGR (Homo sapiens, UniProt P47871, DEL55-55); assay: Functional cAMP assay in HEK-293 cells expressing hGCGR; format: cell-based; settings: percent of maximal response to GCG
T3 construct: expressed in transfected cells; host or cells: HEK-293 clonal cell line
Method: as §1, §2

[5] = Weight loss, metabolism and body composition in DIO C57/B16 mice; format: in vivo
Method: Methods: To investigate the effects of the Example compounds on parameters such as weight loss, metabolism and body composition, the Example compounds are dosed to C57B16 DIO mice. These animals, although not diabetic, display insulin resistance and dyslipidemia, all characteristics of metabolic syndrome, after being placed on a high fat diet for 20 weeks.
Here, DIO male C57/B16 mice at 20 weeks old are maintained on a calorie-rich diet are used in the following studies. […] After a 3-week acclimation to the facility, which includes 1 week of vehicle acclimation dosing, the mice are randomized according to their body weight, so each experimental group of animals would have similar body weight.
All groups contain 6 mice. […] Body weight and food intake are measured daily throughout the study, including 1 day after last dose (Day 15).
Absolute changes in body weight are calculated by subtracting the body weight of the same animal prior to the first injection of molecule. On Days 0 and 15, total fat mass is measured by nuclear magnetic resonance (NMR) using an Echo Medical System (Houston, TX) instrument. On Day 15, metabolic parameters are measured using Accu-Chek® Aviva® Glucometers (Roche; Indianapolis, IN) or a Hitachi clinical blood analyzer (Roche, Indianapolis, IN). Plasma insulin is determined using an electrochemiluminescence assay (Meso Scale Discovery, Rockville, MD).
Data are presented as mean±t SEM of 6animals per group in Tables 7 and 8 below. Statistical analysis is performed using repeated measures ANOVA, followed by Dunneti's method for multiple comparisons. Significant differences are identified as * with p<0.05.

[6] = Insulin secretion during ivGTT in male Wistar rats; format: in vivo; settings: Sema: semaglutide 10 nmol/kg positive control, one per run of each Example compound
Method: Methods: An intravenous glucose tolerance test (ivGTT) in Male Wistar rats is used to estimate insulinotropic potency of the Example compounds. A GLP-1R agonist, semaglutide, is used as a positive control. […] Semaglutide is used as positive control in connection with each run of Example compounds ([…] dose).
A time 0 blood sample is collected into EDTA tubes after which glucose is administered ([…], 5 mL/kg). Blood samples are collected for glucose and insulin levels at time 2, 4, 6, 10, 20 and 30 min post intravenous administration of glucose. Plasma insulin is determined using an electrochemiluminescence assay (Meso Scale; Rockville, MD).
Statistical analysis is performed using JMP with a one-way ANOVA followed by Dunnett's comparison to the vehicle control.

[7] = HEK293, 0.1% bovine casein and 1.0% human serum albumin, read-out: hGIPR Emax
[8] = HEK293, 0.1% bovine casein, read-out: hGIPR Emax
[9] = 10 nmol/kg SQ daily, day 15 difference vs vehicle, DIO mice

T2 sequence (P43220 24-463): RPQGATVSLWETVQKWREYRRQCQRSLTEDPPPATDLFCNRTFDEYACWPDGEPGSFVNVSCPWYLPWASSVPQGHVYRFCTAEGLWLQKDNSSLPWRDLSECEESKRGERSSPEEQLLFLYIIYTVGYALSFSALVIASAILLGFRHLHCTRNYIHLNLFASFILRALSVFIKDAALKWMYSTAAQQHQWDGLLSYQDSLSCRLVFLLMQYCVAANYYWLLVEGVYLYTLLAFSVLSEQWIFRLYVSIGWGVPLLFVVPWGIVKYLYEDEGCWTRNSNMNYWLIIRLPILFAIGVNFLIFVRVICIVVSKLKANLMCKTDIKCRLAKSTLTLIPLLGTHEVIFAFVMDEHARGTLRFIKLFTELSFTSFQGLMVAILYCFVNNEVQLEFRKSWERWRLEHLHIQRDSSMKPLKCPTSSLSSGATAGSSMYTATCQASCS
T3 sequence (P47871 with tags, fused parts or gaps DEL55-55): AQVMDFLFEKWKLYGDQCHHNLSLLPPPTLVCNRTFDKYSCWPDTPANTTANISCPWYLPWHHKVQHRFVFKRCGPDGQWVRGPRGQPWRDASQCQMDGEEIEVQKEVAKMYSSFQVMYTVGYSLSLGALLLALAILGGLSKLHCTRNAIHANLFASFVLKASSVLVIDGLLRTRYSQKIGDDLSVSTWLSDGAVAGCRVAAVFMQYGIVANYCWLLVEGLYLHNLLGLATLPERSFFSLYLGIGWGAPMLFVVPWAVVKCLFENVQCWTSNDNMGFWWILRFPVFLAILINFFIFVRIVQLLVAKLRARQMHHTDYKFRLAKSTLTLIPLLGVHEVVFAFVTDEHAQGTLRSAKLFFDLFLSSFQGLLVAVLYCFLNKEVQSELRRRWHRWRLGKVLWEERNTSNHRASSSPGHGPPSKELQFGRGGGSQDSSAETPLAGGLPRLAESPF

## CC[C@H](C)[C@H](NC(=O)[C@H](Cc1ccccc1)NC(=O)[C@H](C)NC(=O)[C@H](Cc1ccncc1)NC(=O)[C@H](CCC(N)=O)NC(=O)[C@H](C)NC(=O)[C@H](CCCCNC(=O)COCCOCCNC(=O)CC[C@H](NC(=O)CCCCCCCCCCCCCCCCCCC(=O)O)C(=O)O)NC(=O)[C@H](CCCN)NC(=O)[C@H](CC(=O)O)NC(=O)[C@H](CC(C)C)NC(=O)[C@H](CC(C)C)NC(=O)[C@@H](NC(=O)[C@H](CO)NC(=O)[C@H](Cc1ccc(O)cc1)NC(=O)[C@H](CC(=O)O)NC(=O)[C@H](CO)NC(=O)[C@@H](NC(=O)[C@](C)(Cc1ccccc1F)NC(=O)[C@@H](NC(=O)CNC(=O)[C@H](CCC(N)=O)NC(=O)C(C)(C)NC(=O)[C@@H](N)Cc1ccc(O)cc1)[C@@H](C)O)[C@@H](C)O)[C@@H](C)CC)C(=O)N[C@@H](CCC(=O)O)C(=O)N[C@@H](Cc1ccc(O)cc1)C(=O)N[C@@H](CC(C)C)C(=O)N[C@@H](CC(C)C)C(=O)N[C@@H](CCC(=O)O)C(=O)NCC(=O)NCC(=O)N1CCC[C@H]1C(=O)N[C@@H](CO)C(=O)N[C@@H](CO)C(=O)NCC(=O)N[C@@H](CCC(=O)O)C(=O)N1CCC[C@H]1C(=O)N1CCC[C@H]1C(=O)N1CCC[C@H]1C(=O)N[C@@H](CCC(=O)O)C(N)=O [Example 1] (H-Y[Aib]QGT[αMePhe(2-F)]TSDYSILLD[Orn]K([AEEA-γGlu-C20 diacid])AQ[4Pal]AFIEYLLEGGPSSGEPPPE-NH2)
[1]; HEK293, read-out: hGIPR Emax, 0.1% bovine casein and 1.0% human serum albumin
  Emax: 100 ± 3%
[1]; HEK293, read-out: hGIPR Emax, 0.1% bovine casein
  Emax: 102 ± 2%
[2]; in vivo
  AUC(0-inf): 55.6 µM·h
  CL/F: 3.6 mL/h/kg
  Cmax: 817 nM
  Tmax: 12 h
  half-life: 38 h
[3]; HEK293, read-out: hGLP-1R Emax, 0.1% bovine casein and 1.0% human serum albumin
  Emax: 102 ± 4%
[3]; HEK293, read-out: hGLP-1R Emax, 0.1% bovine casein
  Emax: 106 ± 4%

## CC[C@H](C)[C@H](NC(=O)[C@H](Cc1ccccc1)NC(=O)[C@H](C)NC(=O)C(C)(CC)NC(=O)[C@H](CCC(N)=O)NC(=O)[C@H](C)NC(=O)[C@H](CCCCNC(=O)COCCOCCNC(=O)CC[C@H](NC(=O)CCCCCCCCCCCCCCCCCCC(=O)O)C(=O)O)NC(=O)[C@H](CCCN)NC(=O)[C@H](CC(=O)O)NC(=O)[C@H](CC(C)C)NC(=O)[C@](C)(CC(C)C)NC(=O)[C@@H](NC(=O)[C@H](CO)NC(=O)[C@H](Cc1ccc(O)cc1)NC(=O)[C@H](CC(=O)O)NC(=O)[C@H](CO)NC(=O)[C@@H](NC(=O)[C@](C)(Cc1ccccc1F)NC(=O)[C@@H](NC(=O)CNC(=O)[C@H](CCC(N)=O)NC(=O)C(C)(C)NC(=O)[C@@H](N)Cc1ccc(O)cc1)[C@@H](C)O)[C@@H](C)O)[C@@H](C)CC)C(=O)N[C@@H](CCC(=O)O)C(=O)N[C@@](C)(Cc1ccc(O)cc1)C(=O)N[C@@H](CC(C)C)C(=O)N[C@@H](CC(C)C)C(=O)N[C@@H](CCC(=O)O)C(=O)NCC(=O)NCC(=O)N1CCC[C@H]1C(=O)N[C@@H](CO)C(=O)N[C@@H](CO)C(=O)NCC(=O)N[C@@H](CCC(=O)O)C(=O)N1CCC[C@H]1C(=O)N1CCC[C@H]1C(=O)N1CCC[C@H]1C(=O)N[C@@H](CO)C(N)=O (some centres unmarked) [Example 2] (H-Y[Aib]QGT[αMePhe(2-F)]TSDYSI[αMeL]LD[Orn]K([AEEA-γGlu-C20 diacid])AQ[ξIva]AFIE[αMeY]LLEGGPSSGEPPPS-NH2; N-terminus assumed)
[1]; [7]
  Emax: 99 ± 2%
[1]; [8]
  Emax: 101 ± 2%
[2]; subcutaneous
  AUC(0-inf): 42.5 µM·h
  CL/F: 4.7 mL/h/kg
  Cmax: 1240 nM
  Tmax: 12 h
  half-life: 18 h

## CC[C@H](C)[C@H](NC(=O)[C@H](Cc1ccccc1)NC(=O)C(C)(C)NC(=O)[C@](C)(CC(C)C)NC(=O)[C@H](CCC(N)=O)NC(=O)[C@H](C)NC(=O)[C@H](CCCCNC(=O)COCCOCCNC(=O)CC[C@H](NC(=O)CCCCCCCCCCCCCCCCCCC(=O)O)C(=O)O)NC(=O)[C@H](CCCN)NC(=O)[C@H](CC(=O)O)NC(=O)[C@H](CC(C)C)NC(=O)[C@](C)(CC(C)C)NC(=O)[C@@H](NC(=O)[C@H](CO)NC(=O)[C@H](Cc1ccncc1)NC(=O)[C@H](CC(=O)O)NC(=O)[C@H](CO)NC(=O)[C@@H](NC(=O)[C@](C)(Cc1ccccc1F)NC(=O)[C@@H](NC(=O)CNC(=O)[C@H](CCC(N)=O)NC(=O)C(C)(C)NC(=O)[C@@H](N)Cc1ccc(O)cc1)[C@@H](C)O)[C@@H](C)O)[C@@H](C)CC)C(=O)N[C@H](CCC(=O)O)C(=O)N[C@@](C)(Cc1ccc(O)cc1)C(=O)N[C@@H](CC(C)C)C(=O)N[C@@H](CC(C)C)C(=O)N[C@@H](CCC(=O)O)C(=O)NCC(=O)NCC(=O)N1CCC[C@H]1C(=O)N[C@@H](CO)C(=O)N[C@@H](CO)C(=O)NCC(=O)N[C@@H](CCC(=O)O)C(=O)N1CCC[C@H]1C(=O)N1CCC[C@H]1C(=O)N1CCC[C@H]1C(=O)N[C@@H](CO)C(N)=O [Example 3]
[1]; [7]
  Emax: 105 ± 5%
[1]; [8]
  Emax: 103 ± 2%
[2]; subcutaneous
  AUC(0-inf): 32.8 µM·h
  CL/F: 6.1 mL/h/kg
  Cmax: 1070 nM
  Tmax: 12 h
  half-life: 13 h
[3]; HEK293, 0.1% bovine casein and 1.0% human serum albumin, read-out: hGLP-1R Emax
  Emax: 111 ± 5%
[3]; HEK293, 0.1% bovine casein, read-out: hGLP-1R Emax
  Emax: 107 ± 2%
[4]; HEK293, 0.1% bovine casein and 1.0% human serum albumin
  Emax: 97 ± 9%
[4]; HEK293, 0.1% bovine casein
  Emax: 99 ± 4%

## semaglutide
[5]; 10 nmol/kg SQ daily 14 days, day 15, difference vs vehicle, DIO mice
  Δ Body Weight (g): −9.23 ± 0.58* g
[5]; [9]
  Δ Cholesterol: −73.33 ± 4.17* mg/dL
  Δ Glucose: -18.33 ± 2.81 mg/dL
  Δ Insulin: -4.15 ± 2.23 ng/mL
  Δ Trigs: 16.00 ± 0.38 mg/dL
[5]; 10 nmol/kg SQ daily, difference in fat mass between days 0 and 15 (NMR), DIO mice
  Fat Mass (%): −15.14 ± 1.93* %
[5]; 10 nmol/kg SQ daily, percent decrease between days 1 and 15, DIO mice
  Δ Body Weight (%): −21.98 ± 2.58* %
[6]
  AUC30 min of Insulin After Bolus IV Glucose: 76.4 and 76.6 and 80.9
